Assay [1] deals with T1, Mutant AtPPO1 (Arabidopsis thaliana, UniProt P55826, S305L/Y426M).
T1 construct: expressed in transfected cells; host or cells: E. coli BT3(ΔPPO), pACBB vector
The experiment in a line: Growth of transformed BT3(ΔPPO) E. coli in LB liquid medium (OD600). The class given is cell-based. Particulars: 37° C., OD600 over culture time. The method, then: (§1) In Example 3, herbicide resistance of respective BT3(ΔPPO) strains transformed with the wild-type AtPPO1, mutant AtPPO1, CyPPO2, CyPPO4 or CyPPO8 gene was investigated on agar media containing different herbicides, and in this Example, herbicide resistance of the strains was investigated in LB liquid media containing different herbicides.
(§2) HV-50 autoclave from Hirayama, HS2100A electronic scale from Hansung Instrument, CB-30V clean bench from Jeio Tech, JSI-200CL incubator from JSR, MQ-200 photometer from Apogee, and 1210 type UV-visible spectrophotometer from Thermo Fisher Scientific were used. The autoclave was used under conditions of 121° C. and 15 minutes, and the incubator was used at 37° C. with lighting of 160˜200 μmol m^−2s^−1 for a culture time of 13.5 hours. The UV-visible spectrophotometer was used at 600 nm.
(§3) Tiafenacil (M.W. 511.87 g/mol), Saflufenacil (M.W. 500.85 g/mol), and Fomesafen (M.W. 438.76 g/mol) used in the experiment were purchased from Dongbu Farm Hannong Co., Ltd, Sigma, and Sigma, respectively. These drugs were prepared at 200 mM concentration in 100% acetone, and stored at −20° C., respectively. Luria-Bertani(LB) medium (10 g/L of Bacto-Tryptone, 5 g/L of Yeast extract, 10 g/L of sodium chloride) and an antibiotic Chloramphenicol (Duchefa) were used.
(§4) For seed culture of E. coli transformed with respective genes, single colonies thereof were cultured in 3 ml of LB broth containing chloramphenicol for 12 hours, and they were diluted with LB broth to absorbance (OD600) of 1.5. Next, chloramphenicol and 500 μl of the seed culture of the transformed E. coli were added to 250 ml of LB liquid medium, and 50 ml of the culture was added to each 250 ml-flask. Each flask was treated with varying concentrations (0, 10 μM, 50 μM, 100 μM) of herbicide stocks (Tiafenacil, Saflufenacil, Fomesafen), and then incubated at 37° C. and 200 rpm. Absorbance (OD600) was measured using a spectrophotometer every 1.5 hours. The experiment was repeated three times, and mean values thereof were given in a graph. Error bars represent standard error of three repeats.

For assay [2], the target named is T2, wild-type AtPPO1 (Arabidopsis thaliana, UniProt P55826).
T2 construct: expressed in transfected cells; host or cells: E. coli BT3(ΔPPO), pACBB vector
T2 sequence (P55826 35-537): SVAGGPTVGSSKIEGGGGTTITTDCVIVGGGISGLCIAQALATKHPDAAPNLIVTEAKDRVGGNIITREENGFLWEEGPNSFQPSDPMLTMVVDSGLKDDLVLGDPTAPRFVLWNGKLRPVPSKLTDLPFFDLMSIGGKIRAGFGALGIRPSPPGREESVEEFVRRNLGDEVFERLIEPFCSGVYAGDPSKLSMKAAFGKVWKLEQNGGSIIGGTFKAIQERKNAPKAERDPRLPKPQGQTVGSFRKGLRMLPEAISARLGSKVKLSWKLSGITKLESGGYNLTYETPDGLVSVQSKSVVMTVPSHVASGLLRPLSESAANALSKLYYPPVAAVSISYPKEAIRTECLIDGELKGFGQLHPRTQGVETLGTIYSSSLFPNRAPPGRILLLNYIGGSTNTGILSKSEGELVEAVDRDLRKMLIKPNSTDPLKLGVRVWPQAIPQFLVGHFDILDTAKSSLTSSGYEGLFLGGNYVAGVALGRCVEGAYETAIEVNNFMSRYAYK
Described as above. It counts as cell-based. The following applies: 37° C., OD600 over culture time. The method, then: as §1, §2, §3, §4

Assay [3] concerns CyPPO2. The assay is described as above. It counts as cell-based, Oscillatoria nigro-viridis PCC 7112. The following applies: 37° C., OD600 over culture time. The method, then:
as §1, §2, §3, §4

Assay [4] concerns CyPPO4. Described as above. The class given is cell-based, Lyngbya sp. PCC 8106. The following applies: 37° C., OD600 over culture time. The method, then: as §1, §2, §3, §4
Assay [5] relates to wild-type Col-0 plants. The experiment in a line: Herbicide spray test on Arabidopsis thaliana plants. The class given is in vivo. The following applies: for outcome of plants at 7 days after spraying: 2-3 ml of 0.5 μM Tiafenacil, 1 μM Saflufenacil, or 3 μM Fomesafen per plant grown about 4 weeks. The method, then:
To examine resistance of the transplanted T1 plants against PPO-based herbicides, the plants were grown for about 3-4 weeks, and then treated with herbicides prior to flower stalk elongation. […] Therefore, 1 μM tiafenacil was evenly applied at an amount proper for the number of plant individuals. After 7 days, resistance of the transformants against PPO-based herbicides was examined.
(§5) To examine whether herbicide resistance traits are maintained in the next generations of plants, respective T2 generation plants of Arabidopsis thaliana which were transformed with CyPPO2, CyPPO4 and CyPPO8 genes were subjected to an herbicide resistance test. 2-3 ml of 0.5 μM Tiafenacil, 1 μM Saflufenacil, or 3 μM Fomesafen was sprayed onto each Arabidopsis thaliana plant grown for about 4 weeks.

Assay [6] has as its system mutant AtPPO1 transformant. Kind of assay: Herbicide spray test on Arabidopsis thaliana T2 plants. The class given is in vivo. The following applies: 2-3 ml of 0.5 μM Tiafenacil, 1 μM Saflufenacil, or 3 μM Fomesafen per plant.
Assay [7] deals with CyPPO2 transformant. The assay is described as above. The following applies: 2-3 ml of 0.5 μM Tiafenacil, 1 μM Saflufenacil, or 3 μM Fomesafen per plant. It counts as in vivo. How it is done:
as §5

Assay [8] concerns CyPPO4 transformant. Described as above. The following applies: 2-3 ml of 0.5 μM Tiafenacil, 1 μM Saflufenacil, or 3 μM Fomesafen per plant. The class given is in vivo. The method, then:
as §5

Assay [9] concerns CyPPO8 transformant. Described as above. The following applies: 2-3 ml of 0.5 μM Tiafenacil, 1 μM Saflufenacil, or 3 μM Fomesafen per plant. The class given is in vivo. How it is done: as §5

T1 sequence (P55826 35-537 S305L/Y426M): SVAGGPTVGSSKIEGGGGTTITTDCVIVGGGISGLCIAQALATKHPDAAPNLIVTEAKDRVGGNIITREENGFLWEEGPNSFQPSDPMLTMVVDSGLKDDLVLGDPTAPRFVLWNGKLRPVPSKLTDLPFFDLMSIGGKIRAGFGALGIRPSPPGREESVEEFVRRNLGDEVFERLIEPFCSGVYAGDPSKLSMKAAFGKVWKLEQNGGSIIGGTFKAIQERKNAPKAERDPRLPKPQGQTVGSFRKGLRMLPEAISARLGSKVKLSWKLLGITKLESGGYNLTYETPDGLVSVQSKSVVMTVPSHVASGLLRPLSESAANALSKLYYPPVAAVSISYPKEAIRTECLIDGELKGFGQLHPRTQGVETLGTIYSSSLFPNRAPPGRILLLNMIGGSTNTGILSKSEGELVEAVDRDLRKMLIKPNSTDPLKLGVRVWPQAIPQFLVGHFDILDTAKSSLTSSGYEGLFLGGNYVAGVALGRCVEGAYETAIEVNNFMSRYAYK

Consider `CS(=O)(=O)NC(=O)c1cc(Oc2ccc(C(F)(F)F)cc2Cl)ccc1[N+](=O)[O-]` [Fomesafen], for which the “concentration by which the strain normally grew” value in assay [1], in assay [3] and in assay [4] was no more than 100 µM in each case. Moreover, the “concentration at which growth inhibition began” value in assay [2] came to 50 µM. Moreover, the “outcome of plants at 7 days after spraying” value (from here on “outcome of plants at 7 days”) is “killed” in assay [5]; “continued to grow without damage” in [6]; “continued to grow without damage” in assay [7]; “continued to grow without damage” in assay [8]; “continued to grow without damage” in assay [9].
With `CC(C)N(C)S(=O)(=O)NC(=O)c1cc(-n2c(=O)cc(C(F)(F)F)n(C)c2=O)c(F)cc1Cl` [Saflufenacil], the “concentration by which the strain normally grew” value in [1], in assay [3] and in [4] was no more than 100 µM in each case. Also, in assay [2], the “concentration at which the strain hardly grew” value is no less than 10 µM. Also, the “outcome of plants at 7 days” value in assay [5] is on record as “killed”; in [6], “continued to grow without damage”; in assay [7], “continued to grow without damage”; in [8], “continued to grow without damage”; in assay [9] it was “continued to grow without damage”.
As for `COC(=O)CCNC(=O)C(C)Sc1cc(-n2c(=O)cc(C(F)(F)F)n(C)c2=O)c(F)cc1Cl` (centres unmarked) [Tiafenacil], the “concentration at which growth inhibition was observed” value in [1] was no less than 50 µM. Moreover, in assay [1], the “concentration at which the strain grew” value is 10 µM. Also, the “concentration at which the strain hardly grew” value in assay [2] is no less than 10 µM. The “concentration by which the strain normally grew” value in assay [3] and in [4] was no more than 100 µM in each case. The “outcome of plants at 7 days” value is “killed” in [5]; “continued to grow without damage” in [6]; “continued to grow without damage” in assay [7]; “continued to grow without damage” in assay [8]; “continued to grow without damage” in assay [9]. Moreover, in [5] (2-3 ml of 1 μM tiafenacil (+0.05% Silwet L-77) per plant), the “outcome of plants after herbicide treatment” value is “killed”.

The values are drawn from US11130960B2, “Methods for conferring or enhancing herbicide resistance on plants and/or alga with protoporphyrinogen oxidase variants” (FARM HANNONG CO., LTD., priority 2014, dated 2021).
